Source: patent US7176313B2, “Anti acid-fast bacterial agent containing pyridonecarboxylic acids as active ingredient” (Daiichi Pharmaceutical Co., Ltd., priority 2000, dated 2007)
Converted amounts (≈) assume the structure as drawn. Where two headings read alike, the source gives them in different places.

Tests used:
[1] = test system: Mycobacterium tuberculosis (RFP sensitive); test: Antibacterial activity (MIC) against Mycobacterium tuberculosis (RFP sensitive); type: cell-based; settings: Table 5
M. avium = test: Antibacterial activity (MIC) against M. avium; type: cell-based, Mycobacterium avium; settings: Table 3
Experimental: Antibacterial activity of the compounds of the invention was measured in accordance with the method described in the literature of Antimicrob. […] In the tables, “OFLX” is an abbreviation of “OFLOXAIN”.

M. intracellulare = test: Antibacterial activity (MIC) against M. intracellulare; type: cell-based, Mycobacterium intracellulare; settings: Table 3
Experimental: Antibacterial activity of the compounds of the invention was measured in accordance with the method described in the literature of Antimicrob. Agents and Chemother., 38, 2877 (1994), and the results are shown in Tables 3 to 8 in terms of MIC (μg/ml). In the tables, “OFLX” is an abbreviation of “OFLOXAIN”.

reticulocytes (RC) = test: Peripheral blood micronucleus test; type: in vivo, Male Slc:ddY mice; settings: mice, intravenous
Experimental: Peripheral Blood Micronucleus Test
Used animals and administration method are similar to those in the mouse acute toxicity test. Samples were prepared by collecting 5 μl each of blood sample from the tail vein at 24 and 48 hours after the administration, dropping the blood on a slide at which 0.1% acridine orange solution had been applied in advance, sealing the slide with a cover glass immediately, and allowing it to stand in a refrigerator for 24 hours.

[2] = Mouse acute toxicity test; type: in vivo, Male Slc:ddY mice; settings: intravenous
Experimental: Mouse Acute Toxicity Test
Male Slc:ddY mice at age of 5-weeks were used as test animals. For dissolving the compounds, 0.1 mol/l NaOH (in saline) was used. Mice were administered intravenously at a rate of 0.1 ml/30 seconds at a dosing volume of 10 ml/kg.

Row | SMILES | MIC ([1]; M. tuberculosis H37Rv) | MIC ([1]; M. tuberculosis Kurono) | MIC ([1]; M. tuberculosis No. 40) | MIC ([1]; M. tuberculosis No. 41) | MIC ([1]; M. tuberculosis No. 43) | MIC ([1]; M. tuberculosis No. 68) | MIC (M. avium; M. avium N-357) | MIC (M. avium; M. avium N-444) | MIC (M. avium; M. avium N-458) | MIC (M. avium; M. avium N-472) | MIC (M. intracellulare; M. intracellulare N-294) | MIC (M. intracellulare; M. intracellulare N-313) | MIC (M. intracellulare; M. intracellulare N-338) | MIC (M. intracellulare; M. intracellulare N-345) | also measured
1 | O=C(O)c1cn([C@@H]2C[C@@H]2F)c2c(Cl)c(N3CC4CCCNC4C3)c(F)cc2c1=O (stereo partly drawn) [Compd. 2] | 0.025 µg/mL (≈ 0.059 µM) | 0.013 µg/mL (≈ 0.0307 µM) | 0.025 µg/mL (≈ 0.059 µM) | 0.006 µg/mL (≈ 0.0142 µM) | 0.10 µg/mL (≈ 0.236 µM) | 0.025 µg/mL (≈ 0.059 µM) | 0.20 µg/mL (≈ 0.472 µM) | 0.39 µg/mL (≈ 0.92 µM) | 0.20 µg/mL (≈ 0.472 µM) | 0.78 µg/mL (≈ 1.84 µM) | 0.39 µg/mL (≈ 0.92 µM) | 0.20 µg/mL (≈ 0.472 µM) | 0.39 µg/mL (≈ 0.92 µM) | 0.78 µg/mL (≈ 1.84 µM) | 
2 | O=C(O)c1cn(C2CC2)c2c(Cl)c(N3CC4CCCNC4C3)c(F)cc2c1=O (stereo not drawn) [Compd. 1] | 0.025 µg/mL (≈ 0.0616 µM) | 0.013 µg/mL (≈ 0.032 µM) | 0.025 µg/mL (≈ 0.0616 µM) | <0.003 µg/mL | 0.20 µg/mL (≈ 0.493 µM) | 0.025 µg/mL (≈ 0.0616 µM) | 0.10 µg/mL (≈ 0.246 µM) | 0.20 µg/mL (≈ 0.493 µM) | 0.20 µg/mL (≈ 0.493 µM) | 1.56 µg/mL (≈ 3.84 µM) | 0.39 µg/mL (≈ 0.961 µM) | 0.10 µg/mL (≈ 0.246 µM) | 0.39 µg/mL (≈ 0.961 µM) | 0.39 µg/mL (≈ 0.961 µM) | 
3 | C[C@H]1COc2c(N3CC(N)C4(CC4)C3)c(F)cc3c(=O)c(C(=O)O)cn1c23 (stereo partly drawn) [Compd. 14] | 0.20 µg/mL (≈ 0.536 µM) | 0.10 µg/mL (≈ 0.268 µM) | 0.20 µg/mL (≈ 0.536 µM) |  |  | 0.20 µg/mL (≈ 0.536 µM) | 1.56 µg/mL (≈ 4.18 µM) | 3.13 µg/mL (≈ 8.38 µM) | 1.56 µg/mL (≈ 4.18 µM) | 6.25 µg/mL (≈ 16.7 µM) | 3.13 µg/mL (≈ 8.38 µM) | 0.78 µg/mL (≈ 2.09 µM) | 6.25 µg/mL (≈ 16.7 µM) | 6.25 µg/mL (≈ 16.7 µM) | 
4 | CO[C@H]1/C=C/O[C@@]2(C)Oc3c(C)c(O)c4c(O)c(c(/C=N/N5CCN(C)CC5)c(O)c4c3C2=O)NC(=O)/C(C)=C\C=C\[C@H](C)[C@H](O)[C@@H](C)[C@@H](O)[C@@H](C)[C@H](OC(C)=O)[C@@H]1C [RFP, rifampicin, reference compound] |  |  |  |  |  |  |  |  |  |  |  |  | 3.13 µg/mL (≈ 3.8 µM) | 3.13 µg/mL (≈ 3.8 µM) | MIC ([1]; Mycobacterium tuberculosis, H37RV, M. tuberculosis H37Rv, read-out: MIC): 0.2 µg/mL (≈ 0.243 µM); MIC ([1]; Mycobacterium tuberculosis, M. tuberculosis Kurono, read-out: MIC): 0.1 µg/mL (≈ 0.122 µM); MIC ([1]; Mycobacterium tuberculosis, M. tuberculosis No. 40, read-out: MIC): 0.1 µg/mL (≈ 0.122 µM); MIC ([1]; Mycobacterium tuberculosis, M. tuberculosis No. 41, read-out: MIC): 0.05 µg/mL (≈ 0.0608 µM); MIC ([1]; Mycobacterium tuberculosis, M. tuberculosis No. 43, read-out: MIC): 3.13 µg/mL (≈ 3.8 µM); MIC ([1]; Mycobacterium tuberculosis, M. tuberculosis No. 68, read-out: MIC): 3.13 µg/mL (≈ 3.8 µM); MIC (M. avium; Mycobacterium avium, M. avium N-357, read-out: MIC): 50 µg/mL (≈ 60.8 µM); MIC (M. avium; Mycobacterium avium, M. avium N-458, read-out: MIC): 100 µg/mL (≈ 122 µM); MIC (M. intracellulare; Mycobacterium intracellulare, M. intracellulare N-313, read-out: MIC): 0.78 µg/mL (≈ 0.948 µM); MIC (M. intracellulare; Mycobacterium intracellulare, M. intracellulare N-294, read-out: MIC): 3.13 µg/mL (≈ 3.8 µM)
5 | C[C@H]1COc2c(N3CCN[C@@H](c4ccccc4)C3)c(F)cc3c(=O)c(C(=O)O)cn1c23 [Compd. 27, 9-Fluoro-2,3-dihydro-3-(S)-methyl-7-oxo-10-[3-(S)-phenyl-1-piperazinyl]-7H-pyrido[1.2.3-de][1,4]benzoxazine-6-carboxylic acid] |  |  |  |  |  |  |  |  |  |  |  |  |  |  | MNRC (%) mean ±S.E. 24 hours (reticulocytes (RC); 100 mg/kg, 24 hours after administration): 0.20 ± 0.03%; MNRC (%) mean ±S.E. 48 hours (reticulocytes (RC); 100 mg/kg, 48 hours after administration): 0.18 ± 0.04%; micronucleus induction (reticulocytes (RC); (untreated control: 0.12±0.08)): weak; survival of mice after administration ([2]; text summary of Table 9): all mice were survived; Mortality (dead/ test) ([2]; mice, 100 mg/kg): 0/5; acute toxicity ([2]; mice, text summary of Table 9): relatively weak
6 | Cc1c(N2CC3CCCNC3C2)c(F)cc2c(=O)c(C(=O)O)cn([C@@H]3C[C@@H]3F)c12 (stereo partly drawn) [Compd. 10] | 0.013 µg/mL (≈ 0.0322 µM) | 0.006 µg/mL (≈ 0.0149 µM) | 0.006 µg/mL (≈ 0.0149 µM) | <0.003 µg/mL | 0.05 µg/mL (≈ 0.124 µM) | 0.013 µg/mL (≈ 0.0322 µM) | 0.05 µg/mL (≈ 0.124 µM) | 0.39 µg/mL (≈ 0.967 µM) | 0.10 µg/mL (≈ 0.248 µM) | 0.39 µg/mL (≈ 0.967 µM) | 0.39 µg/mL (≈ 0.967 µM) | 0.10 µg/mL (≈ 0.248 µM) | 0.39 µg/mL (≈ 0.967 µM) | 0.78 µg/mL (≈ 1.93 µM) | 
